From patent publication US7001983B1, “Antipathogenic synthetic peptides and compositions comprising them” (priority 1997, dated 2006)

Legend:
[1] = test system: Acinetobacter calcoaceticus Ac11; format: cell-based; conditions: 100% inhibition of growth after 18–20 h
[2] = test system: human red blood cells (hRBC); test: Hemolysis of human red blood cells; format: cell-based; conditions: hRBC
Method in brief: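 Washed fresh erythrocytes at 5% v/v final in PBS pH 7.3 exposed to peptide 30 min at 37° C with agitation. Hemoglobin release read as supernatant absorbance at 540 nm after centrifugation, scaled between PBS (0%) and 1% Triton (100%).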

Bacillus megaterium Bm11 = format: cell-based; conditions: 100% inhibition of growth after 18–20 h
[3] = test system: Bacillus subtilis ATCC 6051; format: cell-based; conditions: 100% inhibition of growth after 18–20 h
[4] = test system: Cryptococcus neoformans (IP960-67); test: Antifungal activity (MIC); format: cell-based; conditions: 100% inhibition of growth after 48 h at 30° C.
Experimental: (§1) The antifungal activity of the pardaxin-derived peptides 1 and 16 (see Example 1 above) was examined in sterile 96-well plates (Nunc F96 microtiter plates) in a final volume of 100 μL as follows: Fifty microliters of a suspension containing fungi at concentration of 1×10^6 Colony-Forming Units (CFU)/ml in culture medium (Sabouraud's glucose broth medium) was added to 50 μL of water containing the peptide in serial 2-fold dilutions in water. Inhibition of growth was determined by measuring the absorbance at 492 nm with a Microplate autoreader E1309 (Bio-tek Instruments), after an incubation time of 48 h at 30° C. […] The fungi used were: Candida albicans (IP886-65) and Cryptococcus neoformans (IP960-67).

[5] = test system: Candida albicans (IP886-65); test: Antifungal activity (MIC); format: cell-based; conditions: 100% inhibition of growth after 48 h at 30° C.
Experimental: as §1

[6] = test system: Micrococcus Iuteus ATCC 9341; test: Antibacterial activity (MIC), growth inhibition in LB medium; format: cell-based, Micrococcus luteus; conditions: 100% inhibition of growth after 18–20 h
Experimental: (viii) Antibacterial activity of the peptides. The antibacterial activity of the diastereomers was examined in sterile 96-well plates (Nunc F96 microtiter plates) in a final volume of 100 μL as follows: Aliquots (50 μl) of a suspension containing bacteria at a concentration of 10^6 Colony-Forming Units (CFU)/ml LB (Lauria broth) medium were added to 50 μL of water or 66% pooled normal human serum in PBS, containing the peptide in 2-fold serial dilutions. Growth inhibition was determined by measuring the absorbance at 492 nm with a Microplate autoreader E1309 (Bio-tek Instruments), following incubation for 18–20 h at 37° C. […] The bacteria used were: Escherichia coli D21, Pseudomonas aeruginosa ATCC 27853, Acinetobacter calcoaceticus Ac11, Salmonella typhimurium LT2, Bacillus megaterium Bm11, Micrococcus Iuteus ATCC 9341, Bacillus subtilis ATCC 6051.

Escherichia coli D21 = format: cell-based; conditions: 100% inhibition of growth after 18–20 h

With `CC[C@H](C)[C@H](NC(=O)[C@H](CCCCN)NC(=O)[C@H]1CCCN1C(=O)[C@@H](NC(=O)[C@H](CC(C)C)NC(=O)[C@H](C)NC(=O)[C@H](Cc1ccccc1)NC(=O)[C@H](Cc1ccccc1)NC(=O)CN)[C@@H](C)CC)C(=O)N[C@H](C(=O)N[C@@H](CO)C(=O)N[C@@H](CO)C(=O)N1CCC[C@H]1C(=O)N[C@@H](CC(C)C)C(=O)N[C@@H](Cc1ccccc1)C(=O)N[C@@H](CCCCN)C(=O)N[C@H](C(=O)N[C@H](CC(C)C)C(=O)N[C@H](CC(C)C)C(=O)N[C@@H](CO)C(=O)N[C@@H](C)C(=O)N[C@H](C(=O)NCC(=O)N[C@@H](CO)C(=O)N[C@@H](C)C(=O)N[C@@H](CC(C)C)C(=O)N[C@@H](CO)C(=O)N[C@@H](CO)C(=O)N[C@@H](CO)C(=O)NCC(=O)NCC(=O)N[C@@H](CCC(N)=O)C(=O)N[C@@H](CCC(=O)NCCN)C(=O)NCCN)C(C)C)[C@@H](C)O)[C@@H](C)CC` [Peptide 1, [D]P^7L^18L^19-TApar] the “Minimal Inhibitory Concentration A. calcoaceticus (Ac11)” value [1] was 6 µM, the “% hemolysis at 50 μM peptide” value ([2]; 50 μM peptide, 30 min at 37° C.) was 5% and the “hemolytic activity up to the maximum concentration tested” value ([2]; up to 50 μM) was “practically devoid of hemolytic activity”. For the same compound, the “Minimal Inhibitory Concentration B. megaterium (Bm11)” value (Bacillus megaterium Bm11) was 0.9 µM, the “Minimal Inhibitory Concentration B. subtilis (ATCC 6051)” value [3] was 3 µM and the “Minimal Inhibitory Concentration Cryptococcus neoformans (IP960-67)” value [4] was 50 µM. For the same compound, the “Minimal Inhibitory Concentration Candida albicans (IP886-65)” value [5] was 35 µM, the “Minimal Inhibitory Concentration M. luteus (ATCC 9341)” value [6] was 12.5 µM and the “Minimal Inhibitory Concentration E. coli (D21)” value (Escherichia coli D21) was 6 µM.
